Test results reported in article PMC12775434, “Ultra-large virtual screening unveils potent agonists of the neuromodulatory orphan receptor GPR139” (Nature Communications, 2025).
Values joined by “and” are separate entries in the source; they are usually repeats but may differ in a detail not shown here. Equal values may be shown once.

Tests used:
Assay type in all cases: cell-based
[1] = biological target: T1, GPR139 (Homo sapiens, UniProt Q6DWJ6); assay: Ca2+ mobilization assay, agonist mode, stable GPR139-CHOk1 cell line; settings: for EC50 / Emax: Supplementary Table 2, mean ± SEM; for EC50: read-out: pEC50 Ca2+ (converted); for Emax: normalized to Lundbeck Cmp 1a, read-out: Emax (%) Ca2+
T1 sequence (Q6DWJ6 1-353): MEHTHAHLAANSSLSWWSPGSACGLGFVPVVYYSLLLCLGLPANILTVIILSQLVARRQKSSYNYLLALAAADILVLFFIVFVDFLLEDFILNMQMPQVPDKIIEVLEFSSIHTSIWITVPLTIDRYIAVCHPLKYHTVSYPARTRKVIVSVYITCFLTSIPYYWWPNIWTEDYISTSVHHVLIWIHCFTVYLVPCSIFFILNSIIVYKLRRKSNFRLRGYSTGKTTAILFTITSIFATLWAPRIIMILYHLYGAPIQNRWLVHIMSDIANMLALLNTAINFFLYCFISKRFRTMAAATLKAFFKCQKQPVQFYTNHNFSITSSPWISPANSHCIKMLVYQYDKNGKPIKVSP
Outline: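 Agonist activity of compounds is assessed in stably transfected CHO-K1 cells using the calcium dye Fluo-4 at 37 °C in HEPES-buffered HBSS (pH 7.4). Efficacy is expressed relative to the reference agonist Lundbeck Cmp 1a, set as 100%.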

[2] = biological target: T1, GPR139; assay: Ca2+ mobilization assay, antagonist mode (EC80 800 nM Lundbeck Cmp 1a after 20 min preincubation), GPR139-CHOk1; settings: individual replicates (Supplementary Figure 4)
Outline: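 Fluo-4-loaded GPR139-CHOk1 cells in HEPES-buffered HBSS (pH 7.4, 2.5 mM probenecid) given test compounds at 10 µM, then after 20 min challenged with 800 nM Lundbeck Cmp 1a (EC80). Calcium fluorescence read at 37 °C, 485/525 nm.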

[3] = biological target: T2, human muscarinic acetylcholine M1 receptor (M1R) (Homo sapiens, UniProt P11229); assay: Ca2+ mobilization counter-screen in M1R-CHOk1 cells; settings: individual replicates (Supplementary Figure 5)
T2 sequence (P11229 1-460): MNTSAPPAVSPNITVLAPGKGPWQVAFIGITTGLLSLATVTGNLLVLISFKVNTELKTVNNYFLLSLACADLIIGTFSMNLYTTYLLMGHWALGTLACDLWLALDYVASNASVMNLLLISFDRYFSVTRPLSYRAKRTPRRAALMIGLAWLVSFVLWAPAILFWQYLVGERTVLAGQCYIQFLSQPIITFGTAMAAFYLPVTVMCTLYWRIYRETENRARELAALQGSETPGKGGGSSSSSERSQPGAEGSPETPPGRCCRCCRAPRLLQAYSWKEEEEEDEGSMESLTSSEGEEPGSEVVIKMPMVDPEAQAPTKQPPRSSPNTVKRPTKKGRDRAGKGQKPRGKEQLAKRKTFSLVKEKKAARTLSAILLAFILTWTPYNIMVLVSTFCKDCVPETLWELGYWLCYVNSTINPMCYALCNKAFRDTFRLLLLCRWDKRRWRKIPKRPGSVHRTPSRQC
Outline: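 Stable M1R-CHOk1 line; Fluo-4 AM 2 µM, 1 h, 37 °C; HEPES-buffered HBSS pH 7.4 + 1 mM MgCl2/CaCl2 + 2.5 mM probenecid; 10 min equilibration; compound injected post-baseline; ex 485/em 525, 37 °C; DMSO ≤0.3%.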

[4] = Agonist mode, individual replicates (Supplementary Figure 4)
[5] = log [Compound] M = -4.5, individual replicate columns
[6] = log [Compound] M = -5.0, individual replicate columns
[7] = log [Compound] M = -5.5, individual replicate columns
[8] = log [Compound] M = -6.0, individual replicate columns
[9] = log [Compound] M = -6.5, individual replicate columns
[10] = log [Compound] M = -7.0, individual replicate columns
[11] = log [Compound] M = -7.5, individual replicate columns
[12] = log [Compound] M = -8.0, individual replicate columns
[13] = log [Compound] M = -8.5, individual replicate columns
[14] = log [Compound] M = -9.0, individual replicate columns

Compound | Ca2+ signal (% of Cmp 1a) [1, 4] | EC50 [1] [nM] | Emax [1] [%] | Ca2+ signal (% of Cmp 1a) [1, 5] | Ca2+ signal (% of Cmp 1a) [1, 6] | Ca2+ signal (% of Cmp 1a) [1, 7] | Ca2+ signal (% of Cmp 1a) [1, 8] | Ca2+ signal (% of Cmp 1a) [1, 9] | Ca2+ signal (% of Cmp 1a) [1, 10] | Ca2+ signal (% of Cmp 1a) [1, 11] | Ca2+ signal (% of Cmp 1a) [1, 12] | Ca2+ signal (% of Cmp 1a) [1, 13] | Ca2+ signal (% of Cmp 1a) [1, 14] | Ca2+ signal (% of Cmp 1a) [2] | Ca2+ signal (% of Carbachol) [3] | change in potency with larger substituents on the thiophene ring ([1]; Ca2+ mobilization)
CCn1nc(-c2nc(CC(=O)NC(C)c3ccccc3)no2)cc1C (stereo not shown) [Compound 1.27, CCN1N=C(C2=NC(CC(NC(C3=CC=CC=C3)C)=O)=NO2)C=C1C] | 81 % of Cmp 1a and 93 % of Cmp 1a and 60 % of Cmp 1a | 2000 | 96 ± 6 | 101 % of Cmp 1a and 107 % of Cmp 1a and 86 % of Cmp 1a | 91 % of Cmp 1a and 71 % of Cmp 1a and 89 % of Cmp 1a | 56 % of Cmp 1a and 61 % of Cmp 1a and 76 % of Cmp 1a | 25 % of Cmp 1a and 33 % of Cmp 1a and 48 % of Cmp 1a | 9 % of Cmp 1a and 7 % of Cmp 1a and 10 % of Cmp 1a | 4.22 % of Cmp 1a and -3 % of Cmp 1a and 6.42 % of Cmp 1a | 8 % of Cmp 1a and 2.12 % of Cmp 1a and -0.804 % of Cmp 1a | 0.271 % of Cmp 1a and 9 % of Cmp 1a and -0.437 % of Cmp 1a | -3 % of Cmp 1a and 2.65 % of Cmp 1a and 6.66 % of Cmp 1a | 4 % of Cmp 1a and -0.687 % of Cmp 1a and 5 % of Cmp 1a | 24 % of Cmp 1a and -1.33 % of Cmp 1a and 22 % of Cmp 1a | -1.81 % of Carbachol and 1.46 % of Carbachol and 5 % of Carbachol | 
CC(=O)c1ccc(-c2nc(CC(=O)NC(C)c3ccccc3)no2)s1 (stereo not shown) [Compound 1.28, CC(C1=CC=CC=C1)NC(CC2=NOC(C3=CC=C(C(C)=O)S3)=N2)=O] | 64 % of Cmp 1a and 62 % of Cmp 1a and 50 % of Cmp 1a | 2510 | 66 ± 3 | 66 % of Cmp 1a and 68 % of Cmp 1a and 55 % of Cmp 1a and 56 % of Cmp 1a and 59 % of Cmp 1a | 77 % of Cmp 1a and 66 % of Cmp 1a and 55 % of Cmp 1a and 46 % of Cmp 1a and 59 % of Cmp 1a | 54 % of Cmp 1a and 43 % of Cmp 1a and 37 % of Cmp 1a and 21 % of Cmp 1a and 29 % of Cmp 1a | 23 % of Cmp 1a and 21 % of Cmp 1a and 9 % of Cmp 1a and 3.16 % of Cmp 1a and 14 % of Cmp 1a | 6.51 % of Cmp 1a and 1.59 % of Cmp 1a and -12 % of Cmp 1a and -2.27 % of Cmp 1a and -4.37 % of Cmp 1a | -1.28 % of Cmp 1a and 2.34 % of Cmp 1a and -6.44 % of Cmp 1a and 7 % of Cmp 1a and -2 % of Cmp 1a | 0.626 % of Cmp 1a and 6.36 % of Cmp 1a and -9 % of Cmp 1a and -0.267 % of Cmp 1a and 3 % of Cmp 1a | -4.49 % of Cmp 1a and 4.31 % of Cmp 1a and -8 % of Cmp 1a and 1.18 % of Cmp 1a and -3.25 % of Cmp 1a | -6.33 % of Cmp 1a and -0.329 % of Cmp 1a and -3.24 % of Cmp 1a and -1.55 % of Cmp 1a and -1.43 % of Cmp 1a | -6.38 % of Cmp 1a and -2.27 % of Cmp 1a and -10 % of Cmp 1a and -4 % of Cmp 1a and 1.43 % of Cmp 1a | 19 % of Cmp 1a and 58 % of Cmp 1a and 22 % of Cmp 1a | -12 % of Carbachol and -1.79 % of Carbachol and -4.4 % of Carbachol | three-fold reduction to a complete loss of activity
Cc1nc(-c2nc(CC(=O)NC(C)c3ccccc3)no2)co1 (stereo not shown) [Compound 1.29, CC(C1=CC=CC=C1)NC(CC2=NOC(C3=COC(C)=N3)=N2)=O] | 64 % of Cmp 1a and 49 % of Cmp 1a and 69 % of Cmp 1a | 2510 | 90 ± 8 | 126 % of Cmp 1a and 100 % of Cmp 1a and 74 % of Cmp 1a | 67 % of Cmp 1a and 101 % of Cmp 1a and 61 % of Cmp 1a | 46 % of Cmp 1a and 95 % of Cmp 1a and 41 % of Cmp 1a | 17 % of Cmp 1a and 47 % of Cmp 1a and 13 % of Cmp 1a | 0.562 % of Cmp 1a and 21 % of Cmp 1a and 3 % of Cmp 1a | -7 % of Cmp 1a and 12 % of Cmp 1a and 3 % of Cmp 1a | -2.32 % of Cmp 1a and 6.5 % of Cmp 1a and 3.51 % of Cmp 1a | 0.891 % of Cmp 1a and 5.39 % of Cmp 1a and 3 % of Cmp 1a | -0.262 % of Cmp 1a and 8 % of Cmp 1a and -2.12 % of Cmp 1a | -0.615 % of Cmp 1a and 11 % of Cmp 1a and -1.07 % of Cmp 1a | 41 % of Cmp 1a and 13 % of Cmp 1a and 3 % of Cmp 1a | -4.71 % of Carbachol and 3.73 % of Carbachol and 1.63 % of Carbachol | 
Cc1cc(-c2nc(CC(=O)NC(C)c3ccccc3)no2)on1 (stereo not shown) [Compound 1.30, CC(C1=CC=CC=C1)NC(CC2=NOC(C3=CC(C)=NO3)=N2)=O] | 70 % of Cmp 1a and 59 % of Cmp 1a and 57 % of Cmp 1a | 2510 | 79 ± 3 | 86 % of Cmp 1a and 79 % of Cmp 1a and 75 % of Cmp 1a | 85 % of Cmp 1a and 68 % of Cmp 1a (2×) | 52 % of Cmp 1a and 50 % of Cmp 1a (2×) | -11 % of Cmp 1a and 14 % of Cmp 1a and 19 % of Cmp 1a | -12 % of Cmp 1a and 7 % of Cmp 1a (2×) | -10 % of Cmp 1a and 8 % of Cmp 1a and -3 % of Cmp 1a | -14 % of Cmp 1a and 7 % of Cmp 1a and -8 % of Cmp 1a | -5.33 % of Cmp 1a and 5.67 % of Cmp 1a and 1.67 % of Cmp 1a | -11 % of Cmp 1a and -3 % of Cmp 1a and 1.67 % of Cmp 1a | 10 % of Cmp 1a and 7 % of Cmp 1a and 3.67 % of Cmp 1a | 46 % of Cmp 1a and 28 % of Cmp 1a and 13 % of Cmp 1a | 4 % of Carbachol and -9 % of Carbachol and 13 % of Carbachol | 
Cc1ccc(-c2nc(CC(=O)NC(C)c3ccccc3)no2)nc1C (stereo not shown) [Compound 1.31, CC(C1=CC=CC=C1)NC(CC2=NOC(C3=NC(C)=C(C)C=C3)=N2)=O] | 66 % of Cmp 1a and 63 % of Cmp 1a and 64 % of Cmp 1a | 3160 | 86 ± 5 | 86 % of Cmp 1a and 82 % of Cmp 1a and 66 % of Cmp 1a and 84 % of Cmp 1a and 90 % of Cmp 1a | 64 % of Cmp 1a and 55 % of Cmp 1a and 44 % of Cmp 1a and 70 % of Cmp 1a and 87 % of Cmp 1a | 36 % of Cmp 1a and 30 % of Cmp 1a and 18 % of Cmp 1a and 73 % of Cmp 1a and 76 % of Cmp 1a | 7 % of Cmp 1a and 7.42 % of Cmp 1a and 11 % of Cmp 1a and 39 % of Cmp 1a and 38 % of Cmp 1a | 11 % of Cmp 1a and -0.0559 % of Cmp 1a and -2.48 % of Cmp 1a and 12 % of Cmp 1a and 13 % of Cmp 1a | -0.363 % of Cmp 1a and -3.44 % of Cmp 1a and 5.45 % of Cmp 1a and 7 % of Cmp 1a and 2.52 % of Cmp 1a | -1.4 % of Cmp 1a and 1.28 % of Cmp 1a and 5 % of Cmp 1a and 4.53 % of Cmp 1a and 3 % of Cmp 1a | 2 % of Cmp 1a and 3.59 % of Cmp 1a and 6 % of Cmp 1a and 2.52 % of Cmp 1a and -0.475 % of Cmp 1a | 1.45 % of Cmp 1a and 1.69 % of Cmp 1a and 3 % of Cmp 1a and 2.45 % of Cmp 1a and -0.45 % of Cmp 1a | 1.77 % of Cmp 1a and -0.256 % of Cmp 1a and 3.41 % of Cmp 1a and 8 % of Cmp 1a and 5 % of Cmp 1a | 38 % of Cmp 1a and 34 % of Cmp 1a and 35 % of Cmp 1a | -8 % of Carbachol and 0.74 % of Carbachol and -0.0562 % of Carbachol | 
